Laboratory results reported in article PMC7158045 (BMC Plant Biology, 2020).
Counter-ions that a name gives are not always drawn.

Columns and labels:
Test in all cases: biochemical
ZmDRIK1-R187-P492 = biological target: T1, ZmDRIK1-R187-P492 (Zea mays, UniProt C0P4K9); settings: read-out: dTm B, DSF, Boltzmann fit, 0.1% DMSO
T1 construct: kinase domain, R187-P492
T1 sequence (C0P4K9 1-514): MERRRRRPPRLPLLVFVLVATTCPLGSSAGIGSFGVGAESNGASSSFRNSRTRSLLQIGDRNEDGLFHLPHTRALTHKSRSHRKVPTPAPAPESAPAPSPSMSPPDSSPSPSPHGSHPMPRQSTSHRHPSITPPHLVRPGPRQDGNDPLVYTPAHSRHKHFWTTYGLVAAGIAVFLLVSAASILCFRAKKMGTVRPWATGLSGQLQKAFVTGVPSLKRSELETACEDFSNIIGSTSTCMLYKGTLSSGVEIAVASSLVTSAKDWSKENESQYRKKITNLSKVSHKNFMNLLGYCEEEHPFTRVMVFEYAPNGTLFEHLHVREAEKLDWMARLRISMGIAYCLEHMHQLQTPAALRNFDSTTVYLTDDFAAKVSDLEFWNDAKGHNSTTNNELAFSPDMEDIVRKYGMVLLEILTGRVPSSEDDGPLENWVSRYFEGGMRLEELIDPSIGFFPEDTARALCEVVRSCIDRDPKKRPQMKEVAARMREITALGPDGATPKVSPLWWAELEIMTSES

ZmDRIK1-K217-S514 = biological target: T2, ZmDRIK1-K217-S514 (Zea mays, UniProt C0P4K9); settings: read-out: dTm B, sheet ZmDRIK1-K217-S514;; DSF, Boltzmann fit, 0.1% DMSO
T2 construct: kinase domain, K217-S514
T2 sequence (C0P4K9 1-514): T1 sequence (C0P4K9 1-514)

[1] = biological target: T3, ZmDRIK1 (DROUGHT RESPONSIVE INACTIVE KINASE 1), kinase domain (Zea mays, UniProt C0P4K9); settings: read-out: dTm B, sheet ZmDRIK1-R187-S514;; DSF, Boltzmann fit, 0.1% DMSO
T3 construct: gene ZEAMMB73_Zm00001d028770; ZmDRIK1-KD R187-S514 (kinase domain)
T3 sequence (C0P4K9 187-514): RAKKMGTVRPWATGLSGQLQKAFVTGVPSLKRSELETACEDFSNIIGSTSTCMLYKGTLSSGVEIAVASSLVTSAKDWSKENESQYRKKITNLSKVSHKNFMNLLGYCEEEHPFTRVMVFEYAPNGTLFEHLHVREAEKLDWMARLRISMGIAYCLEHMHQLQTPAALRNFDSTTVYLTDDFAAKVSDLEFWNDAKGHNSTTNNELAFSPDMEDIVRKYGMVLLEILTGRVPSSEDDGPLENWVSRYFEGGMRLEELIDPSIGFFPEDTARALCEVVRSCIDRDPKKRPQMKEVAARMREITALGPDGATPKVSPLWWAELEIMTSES

ZmDRIK1-K217-P492 = biological target: T4, ZmDRIK1-K217-P492 (Zea mays, UniProt C0P4K9); settings: read-out: dTm B, sheet ZmDRIK1-K217-P492;; DSF, Boltzmann fit, 0.1% DMSO
T4 construct: kinase domain, K217-P492
T4 sequence (C0P4K9 1-514): T1 sequence (C0P4K9 1-514)

Row | SMILES | ΔTm at 10 µM (ZmDRIK1-R187-P492) [°C] | ΔTm at 10 µM (ZmDRIK1-K217-S514) [°C] | ΔTm at 10 µM [1] [°C] | ΔTm at 10 µM (ZmDRIK1-K217-P492) [°C]
1 | COc1cc2/c(=N/c3ccc(Br)cc3F)nc[nH]c2cc1OCC1CCN(C)CC1 [Vandetanib (ZD6474)] | -0.154 | -0.239 | -0.824 | -0.91
2 | CCN(CC)CCCC(C)Nc1nc(C)cc(Nc2ccc3nc(C)cc(N)c3c2)n1 (stereo not shown) [NSC 23766] | -0.128 | -0.555 | -0.461 | -0.485
3 | Cc1ccc(-c2nn(C(C)(C)C)c3ncnc(N)c23)cc1 [PP1] | -0.136 | -0.253 | -0.972 | -1.01
4 | NC(=O)c1cccc(-c2cc(Nc3ccc(OC(F)(F)F)cc3)ncn2)c1 [GNF-2] | -7.74 | -4.34 | -0.138 | -9.47
5 | CCOc1ccn(-c2ccc(F)cc2)c(=O)c1C(=O)Nc1ccc(Oc2ccnc(N)c2Cl)c(F)c1 [BMS-777607] | -0.218 | -0.662 | -1.06 | -0.979
6 | Oc1cccc(-c2nc(N3CCOCC3)c3oc4ncccc4c3n2)c1 [PI-103] | -0.366 | -0.559 | -0.608 | -1.14
7 | Cc1cnc(-c2cnc(NCCNc3ccc(C#N)cn3)nc2-c2ccc(Cl)cc2Cl)[nH]1 [CHIR-99021 (CT99021) HCl] | -0.404 | -0.494 | -0.639 | -0.928
8 | C[C@@H]1COC(Nc2ccc3ncnc(Nc4ccc(OCc5nccs5)c(Cl)c4)c3c2)=N1 [Varlitinib] | -0.314 | -0.516 | -0.97 | -0.993
9 | CCCCCCCCc1ccc(CCC(N)(CO)CO)cc1 [Fingolimod (FTY720) HCl] | -0.447 | -0.608 | -0.542 | -1.47
10 | O=C(O)[C@]1(Cc2cccc(Nc3nccs3)n2)CC[C@@H](Oc2cccc(Cl)c2F)CC1 [MK-5108 (VX-689)] | -0.282 | -0.299 | -1.14 | -0.754
11 | Cn1cc(-c2ccc3ncc(Cc4ccc5ncccc5c4)n3n2)cn1 [NVP-BVU972] | -0.283 | -0.37 | -0.84 | -0.593
12 | Cc1cc2c(F)c(Oc3ncnn4cc(OC[C@@H](C)O)c(C)c34)ccc2[nH]1 [Brivanib (BMS-540215)] | -0.365 | -0.0833 | -1.28 | -0.796
13 | Oc1cc(O)cc(/C=C/c2ccc(O)c(O)c2)c1 [Piceatannol] | 0.733 | 1.1 | -0.69 | -0.567
14 | COc1cc2ncnc(Nc3ccc(O)c(Br)c3)c2cc1OC [WHI-P154] | 1.76 | 2.03 | 0.428 | 0.694
15 | Cn1cc(C2=C(c3cn(CCCSC(=N)N)c4ccccc34)C(=O)NC2=O)c2ccccc21 [Ro 31-8220 Mesylate] | -0.197 | -0.33 | -0.819 | -1.24
16 | C=CC(=O)Nc1cccc(Nc2nc(Nc3ccc(N4CCN(C(C)=O)CC4)cc3OC)ncc2C(F)(F)F)c1 [CO-1686 (AVL-301)] | -0.278 | -0.448 | -0.884 | -0.85
17 | CS(=O)(=O)N1CCc2c(-c3cnc(N)nc3)nc(N3CCOCC3)nc21 [CH5132799] | -0.223 | -0.324 | -0.711 | -0.608

Row | SMILES | ΔTm at 10 µM (ZmDRIK1-R187-P492) [°C] | ΔTm at 10 µM (ZmDRIK1-K217-S514) [°C] | ΔTm at 10 µM [1] [°C] | ΔTm at 10 µM (ZmDRIK1-K217-P492) [°C]
18 | CNc1nc(-c2ccc3c(N)n[nH]c3c2)cc(N2C[C@@H](C(=O)NC3CCCCC3)CC[C@H]2C)n1 [GSK2334470] | -0.4 | -0.431 | -0.8 | -0.636
19 | CCS(=O)(=O)Nc1ccc2c(c1)/C(=C(/Nc1ccc(CN3CCCCC3)cc1)c1ccccc1)C(=O)N2 [Hesperadin] | -0.086 | -0.308 | -0.801 | 0.108
20 | O=C(Nc1ccc(OC(F)(F)F)cc1)c1sccc1NCc1ccnc2ccccc12 [OSI-930] | -3.67 | -5.53 | -0.0551 | -0.971
21 | CN(C)c1ccc(-c2nc3ncc(Cl)c(N4CCN(CC(=O)Nc5nccs5)CC4)c3[nH]2)cc1 [CCT129202] | -0.353 | -0.39 | -1.56 | -0.83
22 | O=C(O)c1ccc(Nc2ncc3c(n2)-c2ccc(Cl)cc2C(c2c(F)cccc2F)=NC3)cc1 [MLN8054] | -0.341 | -0.583 | -0.958 | -1.36
23 | O=C(NCc1cccc(O)c1)Nc1nc(-c2ccncc2)cs1 [RKI-1447] | 0.716 | -0.42 | -0.456 | -0.48
24 | CNc1nc(Nc2cnn([C@H]3CCN(C4COC4)C[C@@H]3F)c2Cl)ncc1C(F)(F)F [GNE-9605] | -0.334 | -0.718 | -0.953 | -0.685
25 | COc1ccc(-c2ccc3c(N4CCOCC4)nc(N4C[C@@H](C)O[C@@H](C)C4)nc3n2)cc1CO [KU-0063794] | -0.299 | -0.302 | -0.516 | -1.21
26 | Oc1c2ccccc2c2c3c(cccc13)N=N2 [SP600125] | -0.115 | -0.115 | -0.63 | -1.06
27 | CC(=O)c1c(C)c2cnc(Nc3ccc(N4CCNCC4)cn3)nc2n(C2CCCC2)c1=O [Palbociclib (PD-0332991) HCl] | -0.154 | -0.31 | -0.906 | -0.775
28 | N#CCNC(=O)c1ccc(-c2ccnc(Nc3ccc(N4CCOCC4)cc3)n2)cc1 [CYT387] | -0.227 | -0.388 | -0.664 | -0.574
29 | C=CC(=O)Nc1cccc(Nc2nc(Nc3ccc(OCCOC)cc3)ncc2F)c1 [AVL-292] | 1.32 | 0.698 | -0.365 | 0.368
30 | Cn1cc(-c2[nH]c3cc(NC(=O)[C@H](N)C4CCCCC4)cc4c3c2C=NNC4=O)cn1 [PF-477736] | -0.228 | -0.328 | -0.63 | -1.09
31 | CC(C)(C)c1cc(NC(=O)Nc2ccc(-c3cn4c(n3)sc3cc(OCCN5CCOCC5)ccc34)cc2)no1 [Quizartinib (AC220)] | -3.69 | -1.21 | -11.5 | -4.77
32 | CC(C)CC(=O)Nc1n[nH]c2c1CN(C(=O)C1CCN(C)CC1)C2(C)C [PHA-793887] | -0.158 | -0.312 | -0.826 | -0.634
33 | Cc1cc(Nc2nc(N[C@@H](C)c3ccc(F)cc3)c(C#N)cc2F)n[nH]1 [AZ 960] | -0.311 | -0.27 | -0.939 | -0.533
34 | COc1cc2c(Oc3ccc4[nH]c(C)cc4c3F)ncnc2cc1OCCCN1CCCC1 [Cediranib (AZD2171)] | -0.191 | -0.229 | -0.769 | -1.09
